Test results reported in patent publication US20220016101A1 (ACADIA Pharmaceuticals Inc., priority 2018, published 2022).

Tested on: patients with MDD and an inadequate response to an SSRI or SNRI
Assay: Massachusetts General Hospital Sexual Functioning Index (MGH-SFI), Study ACP-103-042
Format: in vivo, human
Conditions: for MGH-SFI 05: Overall Sexual Satisfaction, Effect Size (Cohen's d) / MGH-SFI 06: Overall Improvement Since Last Medication Change, Effect Size (Cohen's d) / MGH-SFI 04: (Men) Ability to Get and Maintain an Erection, Effect Size (Cohen's d) / MGH-SFI 02: Ability to Get Sexually Aroused or Excited, Effect Size (Cohen's d) / MGH-SFI 03: Ability to Achieve Orgasm, Effect Size (Cohen's d) / MGH-SFI 01: Interest in Sex, Effect Size (Cohen's d): PIM 34 mg vs placebo; for MGH-SFI 04: (Men) Ability to Get and Maintain an Erection, Change from Baseline to Week 5 Mean (SE) / MGH-SFI 04: (Men) Ability to Get and Maintain an Erection, Change from Baseline to Week 5 Median / MGH-SFI 04: (Men) Ability to Get and Maintain an Erection, Week 5 Mean (SE) / MGH-SFI 04: (Men) Ability to Get and Maintain an Erection, Week 5 Median / MGH-SFI 05: Overall Sexual Satisfaction, Change from Baseline to Week 5 Mean (SE) / MGH-SFI 05: Overall Sexual Satisfaction, Change from Baseline to Week 5 Median / MGH-SFI 05: Overall Sexual Satisfaction, Week 5 Mean (SE) / MGH-SFI 05: Overall Sexual Satisfaction, Week 5 Median / MGH-SFI 06: Overall Improvement Since Last Medication Change, Week 5 Mean (SE) / MGH-SFI 06: Overall Improvement Since Last Medication Change, Week 5 Median / MGH-SFI 02: Ability to Get Sexually Aroused or Excited, Change from Baseline to Week 5 Mean (SE) / MGH-SFI 02: Ability to Get Sexually Aroused or Excited, Change from Baseline to Week 5 Median / MGH-SFI 02: Ability to Get Sexually Aroused or Excited, Week 5 Mean (SE) / MGH-SFI 02: Ability to Get Sexually Aroused or Excited, Week 5 Median / MGH-SFI 03: Ability to Achieve Orgasm, Change from Baseline to Week 5 Mean (SE) / MGH-SFI 03: Ability to Achieve Orgasm, Change from Baseline to Week 5 Median / MGH-SFI 03: Ability to Achieve Orgasm, Week 5 Mean (SE) / MGH-SFI 03: Ability to Achieve Orgasm, Week 5 Median / MGH-SFI 01: Interest in Sex, Change from Baseline to Week 5 Mean (SE) / MGH-SFI 01: Interest in Sex, Change from Baseline to Week 5 Median / MGH-SFI 01: Interest in Sex, Week 5 Mean (SE) / MGH-SFI 01: Interest in Sex, Week 5 Median: PIM 34 mg; for MGH-SFI 01: Interest in Sex, Change from Baseline to Week 5 Mean (SE) / MGH-SFI 01: Interest in Sex, Change from Baseline to Week 5 Median / MGH-SFI 01: Interest in Sex, Week 5 Mean (SE) / MGH-SFI 01: Interest in Sex, Week 5 Median / MGH-SFI 01: Interest in Sex, Effect Size (Cohen's d): subgroup >50 years
Source text: “Massachusetts General Hospital Sexual Functioning Index (MGH-SFI)” is described, for instance, in Labbate and Lare, 2001, Psychother Psychosom. 70(4):221-225. This is a patient facing questionnaire that quantifies sexual dysfunction into 5 functional domains (“interest in sex,” “sexual arousal,” “ability to achieve orgasm,” “ability to maintain erection” (males only), and “sexual satisfaction”). Patients rate each item using a 6-point scale ranging from 1 (good function) to 6 (poor function). High scores indicate poor sexual functioning. […] The determination of the subject's status and eligibility for randomization in Stage 2 was made in a double-blind manner. […] Sexual functioning was assessed using the Massachusetts General Hospital Sexual Functioning Index or MGH-SFI (Labbate and Lare, 2001, Psychother Psychosom. 70(4):221-225). This is a patient facing questionnaire that quantifies sexual dysfunction into 5 functional domains (“interest in sex,” “sexual arousal,” “ability to achieve orgasm,” “ability to maintain erection” [malesonly], and “sexual satisfaction”). Patients rate each item using a 6-point scale ranging from 1 (good function) to 6 (poor function). The time frame for this scale is the past month. This scale was administered at baseline and Week 5 in both stages of the study. High scores indicate poor sexual functioning. In ACP-103-042 the mean scores for MGH-SFI at Baseline was calculated over all 5 domains for males and the 4 domains for females. For MGH-SFI (follow-up version) at Study Weeks 5 and 10, the mean was calculated in the same way as MGH-SFI at Baseline. […] Tables 10-27 summarize the detailed data of MGH-SFI individual items of the overall study group (Tables 10-15), the subgroup of age of <=50 (Tables 16-21) and the subgroup of age of >50 (Table 21-26). In Tables 9-26, ANCOVA=analysis of covariance; OC=observed cases; LSM=least squares mean; CI=confidence interval; SD=standard deviation; SE=standard error. Stage 1: Baseline=Study Week 0, Week 5=Study Week 5; Stage 2: Baseline=Study Week 5, Week 5=Study Weeks 10. LSM from the stage-specific ANCOVA analysis with the change from baseline as the outcome, treatment group as a factor, and the corresponding Baseline value as a covariate. 2-sided p-value for treatment difference from the stage-specific ANCOVA analysis. An treatment effect size (Cohen's d) is calculated using the formula: Effect Size=Least Square mean difference between PIM and PBO/SD. The corresponding 95% confidence interval for an effect size is calculated based on the theoretical probability distribution of the effect size. […] Tables 10-15 and 28-38 summarize the detailed data of MGH-SFI individual items of the overall study group (Tables 10-15), the female subgroup (Tables 33-37) and the male subgroup (Table 38-43). An treatment effect size (Cohen's d) is calculated using the formula: Effect Size=Least Square mean difference between PIM and PBO/SD. The corresponding 95% confidence interval for an effect size is calculated based on the theoretical probability distribution of the effect size. In Tables 10-15 and 28-38, ANCOVA=analysis of covariance; OC=observed cases; LSM=least squares mean; CI=confidence interval; SD=standard deviation; SE=standard error. Stage 1: Baseline=Study Week 0, Week 5=Study Week 5; Stage 2: Baseline=Study Week 5, Week 5=Study Weeks 10. LSM from the stage-specific ANCOVA analysis with the change from baseline as the outcome, treatment group as a factor, and the corresponding Baseline value as a covariate. 2-sided p-value for treatment difference from the stage-specific ANCOVA analysis. An treatment effect size (Cohen's d) is calculated using the formula: Effect Size=Least Square mean difference between PIM and PBO/SD. The corresponding 95% confidence interval for an effect size is calculated based on the theoretical probability distribution of the effect size.

[1] = subgroup <=50 years old, Stage 1
[2] = subgroup <=50 years old, Stage 2
[3] = subgroup >50 years old, Stage 1
[4] = subgroup >50 years old, Stage 2

CC(C)COc1ccc(CNC(=O)N(Cc2ccc(F)cc2)C2CCN(C)CC2)cc1 [pimavanserin, N-(4-Fluorophenylmethyl)-N-(1-methylpiperidin-4-yl)-N′-(4-(2-methylpropyloxy)phenylmethyl)carbamide]
MGH-SFI 05: Overall Sexual Satisfaction, Effect Size (Cohen's d) [1]: 0.304
MGH-SFI 06: Overall Improvement Since Last Medication Change, Effect Size (Cohen's d) [1]: 0.622
MGH-SFI 04: (Men) Ability to Get and Maintain an Erection, Change from Baseline to Week 5 Mean (SE) [2]: −0.3 (0.48)
MGH-SFI 04: (Men) Ability to Get and Maintain an Erection, Change from Baseline to Week 5 Median [2]: −0.5
MGH-SFI 04: (Men) Ability to Get and Maintain an Erection, Week 5 Mean (SE) [2]: 3.5 (0.50)
MGH-SFI 04: (Men) Ability to Get and Maintain an Erection, Week 5 Median [2]: 4.0
MGH-SFI 05: Overall Sexual Satisfaction, Change from Baseline to Week 5 Mean (SE) [2]: −0.6 (0.34)
MGH-SFI 05: Overall Sexual Satisfaction, Change from Baseline to Week 5 Median [2]: −1.0
MGH-SFI 05: Overall Sexual Satisfaction, Week 5 Mean (SE) [2]: 4.0 (0.39)
MGH-SFI 05: Overall Sexual Satisfaction, Week 5 Median [2]: 4.0
MGH-SFI 06: Overall Improvement Since Last Medication Change, Week 5 Mean (SE) [2]: 3.8 (0.33)
MGH-SFI 06: Overall Improvement Since Last Medication Change, Week 5 Median [2]: 4.0
MGH-SFI 04: (Men) Ability to Get and Maintain an Erection, Effect Size (Cohen's d) [2]: −0.526
MGH-SFI 05: Overall Sexual Satisfaction, Effect Size (Cohen's d) [2]: 0.405
MGH-SFI 06: Overall Improvement Since Last Medication Change, Effect Size (Cohen's d) [2]: 0.043
MGH-SFI 02: Ability to Get Sexually Aroused or Excited, Change from Baseline to Week 5 Mean (SE) [3]: −0.9 (0.21)
MGH-SFI 02: Ability to Get Sexually Aroused or Excited, Change from Baseline to Week 5 Median [3]: −1.0
MGH-SFI 02: Ability to Get Sexually Aroused or Excited, Week 5 Mean (SE) [3]: 3.9 (0.32)
MGH-SFI 02: Ability to Get Sexually Aroused or Excited, Week 5 Median [3]: 4.0
MGH-SFI 03: Ability to Achieve Orgasm, Change from Baseline to Week 5 Mean (SE) [3]: −1.2 (0.33)
MGH-SFI 03: Ability to Achieve Orgasm, Change from Baseline to Week 5 Median [3]: 0.0
MGH-SFI 03: Ability to Achieve Orgasm, Week 5 Mean (SE) [3]: 3.8 (0.33)
MGH-SFI 03: Ability to Achieve Orgasm, Week 5 Median [3]: 4.0
MGH-SFI 04: (Men) Ability to Get and Maintain an Erection, Change from Baseline to Week 5 Mean (SE) [3]: 0.8 (0.48)
MGH-SFI 04: (Men) Ability to Get and Maintain an Erection, Change from Baseline to Week 5 Median [3]: 0.5
MGH-SFI 04: (Men) Ability to Get and Maintain an Erection, Week 5 Mean (SE) [3]: 5.0 (0.71)
MGH-SFI 04: (Men) Ability to Get and Maintain an Erection, Week 5 Median [3]: 5.5
MGH-SFI 05: Overall Sexual Satisfaction, Change from Baseline to Week 5 Mean (SE) [3]: −1.1 (0.34)
MGH-SFI 05: Overall Sexual Satisfaction, Change from Baseline to Week 5 Median [3]: 0.0
MGH-SFI 05: Overall Sexual Satisfaction, Week 5 Mean (SE) [3]: 4.1 (0.34)
MGH-SFI 05: Overall Sexual Satisfaction, Week 5 Median [3]: 4.0
MGH-SFI 06: Overall Improvement Since Last Medication Change, Week 5 Mean (SE) [3]: 3.3 (0.24)
MGH-SFI 06: Overall Improvement Since Last Medication Change, Week 5 Median [3]: 4.0
MGH-SFI 02: Ability to Get Sexually Aroused or Excited, Effect Size (Cohen's d) [3]: 0.660
MGH-SFI 03: Ability to Achieve Orgasm, Effect Size (Cohen's d) [3]: 0.869
MGH-SFI 04: (Men) Ability to Get and Maintain an Erection, Effect Size (Cohen's d) [3]: −0.568
MGH-SFI 05: Overall Sexual Satisfaction, Effect Size (Cohen's d) [3]: 0.757
MGH-SFI 06: Overall Improvement Since Last Medication Change, Effect Size (Cohen's d) [3]: 0.531
MGH-SFI 02: Ability to Get Sexually Aroused or Excited, Change from Baseline to Week 5 Mean (SE) [4]: −0.4 (0.21)
MGH-SFI 02: Ability to Get Sexually Aroused or Excited, Change from Baseline to Week 5 Median [4]: 0.0
MGH-SFI 02: Ability to Get Sexually Aroused or Excited, Week 5 Mean (SE) [4]: 4.4 (0.46)
MGH-SFI 02: Ability to Get Sexually Aroused or Excited, Week 5 Median [4]: 5.0
MGH-SFI 03: Ability to Achieve Orgasm, Change from Baseline to Week 5 Mean (SE) [4]: −0.5 (0.27)
MGH-SFI 03: Ability to Achieve Orgasm, Change from Baseline to Week 5 Median [4]: 0.0
MGH-SFI 03: Ability to Achieve Orgasm, Week 5 Mean (SE) [4]: 4.5 (0.54)
MGH-SFI 03: Ability to Achieve Orgasm, Week 5 Median [4]: 5.0
MGH-SFI 04: (Men) Ability to Get and Maintain an Erection, Change from Baseline to Week 5 Mean (SE) [4]: −1.6 (0.51)
MGH-SFI 04: (Men) Ability to Get and Maintain an Erection, Change from Baseline to Week 5 Median [4]: −2.0
MGH-SFI 04: (Men) Ability to Get and Maintain an Erection, Week 5 Mean (SE) [4]: 2.8 (0.92)
MGH-SFI 04: (Men) Ability to Get and Maintain an Erection, Week 5 Median [4]: 2.0
MGH-SFI 05: Overall Sexual Satisfaction, Change from Baseline to Week 5 Mean (SE) [4]: −0.8 (0.39)
MGH-SFI 05: Overall Sexual Satisfaction, Change from Baseline to Week 5 Median [4]: 0.0
MGH-SFI 05: Overall Sexual Satisfaction, Week 5 Mean (SE) [4]: 4.2 (0.58)
MGH-SFI 05: Overall Sexual Satisfaction, Week 5 Median [4]: 5.0
MGH-SFI 06: Overall Improvement Since Last Medication Change, Week 5 Mean (SE) [4]: 3.5 (0.40)
MGH-SFI 06: Overall Improvement Since Last Medication Change, Week 5 Median [4]: 4.0
MGH-SFI 02: Ability to Get Sexually Aroused or Excited, Effect Size (Cohen's d) [4]: −0.075
MGH-SFI 03: Ability to Achieve Orgasm, Effect Size (Cohen's d) [4]: 0.169
MGH-SFI 04: (Men) Ability to Get and Maintain an Erection, Effect Size (Cohen's d) [4]: 1.174
MGH-SFI 05: Overall Sexual Satisfaction, Effect Size (Cohen's d) [4]: 0.555
MGH-SFI 06: Overall Improvement Since Last Medication Change, Effect Size (Cohen's d) [4]: 0.406
MGH-SFI 01: Interest in Sex, Change from Baseline to Week 5 Mean (SE) (Stage 1): −1.0 (0.24)
MGH-SFI 01: Interest in Sex, Change from Baseline to Week 5 Median (Stage 1): −1.0
MGH-SFI 01: Interest in Sex, Week 5 Mean (SE) (Stage 1): 3.9 (0.32)
MGH-SFI 01: Interest in Sex, Week 5 Median (Stage 1): 4.0
MGH-SFI 01: Interest in Sex, Effect Size (Cohen's d) (Stage 1): 0.649
MGH-SFI 01: Interest in Sex, Change from Baseline to Week 5 Mean (SE) (Stage 2): −0.6 (0.24)
MGH-SFI 01: Interest in Sex, Change from Baseline to Week 5 Median (Stage 2): 0.0
MGH-SFI 01: Interest in Sex, Week 5 Mean (SE) (Stage 2): 4.4 (0.45)
MGH-SFI 01: Interest in Sex, Week 5 Median (Stage 2): 5.0
MGH-SFI 01: Interest in Sex, Effect Size (Cohen's d) (Stage 2): 0.468
